Measurements published in US4350676A, “Ophthalmic use of carboxyfluorescein” (priority 1981, dated 1982).
Where two headings read alike, the source gives them in different places.

Legend:
[1] = cited from earlier work
physchem = conditions: for logD at 10 µM / logD at 1000 µM / Partition ratio octanol/buffer: octanol/0.1 m phosphate buffer
Experimental: Octanol/buffer partition ratios: The ratio of concentrations of a given solute in equilibrium distribution between two immiscible solvents is termed the partition coefficient. This expression properly refers only to the distribution of a single molecular species between the two phases. […] Total dye concentration in the two solvent phases was measured without correction for ionization or self-association and the recommended term, "partition ratio", is used to refer to these uncorrected distributions.
Carboxyfluorescein (Eastman Kodak Co., Rochester) or sodium fluorescein (Sigma Chemical Co., St. Louis) was dissolved at concentrations of 10^-3 M or 10^-5 M in octanol-saturated 0.1 M phosphate buffer at different pH values between 6.40 and 8.03. The aqueous dye solutions were equilibrated with equal volumes of buffer-saturated octanol by 100 inversions during 5 minutes, and the phases were separated by centrifugation. Dye concentrations were measured spectrofluorophotometrically at excitation and emmision wavelengths of 487 and 512 nm, respectively, with an Aminco-Bowman Ratio Spectrofluorophotometer.
Two methods were used to calculate partition ratios. In the first, the dye concentration in the aqueous phase was measured before (Cb) and after (Ca) partitioning, and the ratio was obtained from the equation:
P.R.=Coct/Caq=(Cb -Ca)/Ca,
where Coct and Caq are the dye concentration in the octanol and aqueous phases respectively after equilibration. In the second method, concentration in the octanol phase was determined by extracting the dye from octanol with an equal volume 0.1 N NaOH. […] Therefore, dye concentration in the first base extract was accepted as the concentration in the octanol phase and calculated the partition ratio from the equation: […]

[2] = tested on: blood-ocular barriers (choroid and retina); assay type: in vivo, male Wistar rats; conditions: rat, iv
Source text: To determine whether a less membrane permeable dye than fluorescein has value as a probe of the structural and functional integrity of the blood-ocular barriers we have undertaken studies of carboxyfluorescein, a compound with the same fluorescence characteristics as fluorescein, but with lower lipid solubility at physiological pH (7). In particular, the lipid solubility of carboxyfluorescein was compared with fluorescein by measuring dye partitioning between octanol and aqueous buffer at different pH to determine solubility behavior relevant to the permeability of cell membranes in vivo. Studies were then made of the ocular distribution carboxyfluorescein in rats after intravenous injection using quantitative fluorescence microscopy; and compared to the results for fluorescein. The plasma binding of carboxyfluorescein was also studied and compared to fluorescein.
(§1) Intra-ocular dye distribution: Young male Wistar rats (180-250 g) under pentobarital anesthesia (50 mg/kg i.p.) were injected intravenously with carboxyfluorescein or fluorescein solutions (pH 7.4) at doses of 12.5, 62.5 and 125 mg/kg. One minute after dye injection, the eyes were removed and immediately frozen in isopentane cooled to -110° C. by a liquid nitrogen bath. Between 2 and 4 minutes after injection a blood sample from the abdominal aorta was drawn into a heparinized syringe for determination of the concentration of unbound dye in plasma. The frozen eyes were dried under vacuum at -35° C. and embedded in paraffin. After embedding the eyes were stored under vacuum at -20° C. to minimize the development of autofluorescence. Additional eyes from normal rats not injected with dye were processed and stored identically for measurement of tissue autofluorescence. Immediately prior to examination with the fluorescence microscope, sections were cut at a thickness of 12 microns, placed on glass slides, and mounted with xylene.
Fluorescence intensity in small areas of the tissue sections was measured with a 450 u fiber optic probe placed in the object plane of an ocular and connected to a photomultiplier tube. An amplified signal from the photomultiplier was recorded with a digital voltmeter. The illumination system consisted of a 50 W high pressure mercury light source and an epifluorescence condensor equipped with a 455-490 nm exciter filter, a 510 nm dichroic beam splitter, and a 520 nm barrier filter. All measurements were performed using a 63X oil objective (N.A. 1.4). With this magnification, an aperture in the object plane restricted the area of illumination to a circle, 24 microns in diameter. The fiber optic probe covered a specimen field, 6 microns in diameter, centered in the larger illuminated field.
Fluorescence intensity of four tissue layers was recorded in the posterior segment: the inner plexiform, outer nuclear, and photoreceptor outer segment layers of the retina, and the choriocapillaris. Each of these layers is of sufficient width so that the illuminated area encompassed a homogeneous field. Foci of intense fluorescence, such as dye filled retinal capillaries, within the illumination field but outside the detection area of the fiber optic probe, can increase the recorded signal by light scatter into the detection area. Fields containing such bright foci were avoided. Examination of the section, location of the area for measurement, and focusing of the image was accomplished under dim green illumination from a tungsten lamp. The illumination was then switched to the fluorescence system, and the maximum value of fluorescence intensity was recorded as voltage. Measurements were made at 12 sites in each layer to obtain the average fluorescence intensities for an individual eye. These values were then corrected for tissue autofluorescence by subtracting the average fluorescence intensity of each layer in eyes from animals not injected with dye. […]

cornea = conditions: topical; cited from earlier work
[3] = tested on: active transport system in the anterior uvea; conditions: outward, from eye to blood; cited from earlier work
[4] = Measurement of unbound dye in plasma of injected rats (dialysis); assay type: in vivo, male Wistar rats; conditions: rat; for Plasma unbound dye concentration: blood 2-4 min after injection
Experimental: as §1
(§2) Measurement of unbound dye in plasma: Plasma was separated by centrifugation from the heparinized blood obtained from rats injected with sodium fluorescein or carboxyfluorescein in the intraocular dye distribution study. The plasma was dialyzed for 24 hours at 37° C. against 0.1 M phosphate buffer at pH 7.4 using cellulose dialysis tubing with a 3500 molecular weight cut-off. Dye concentration was measured in the dialysate spectrofluorophotometrically and from this value calculated the unbound plasma dye concentration.

[5] = cited from earlier work; remark: listed apart in the source
[6] = Dialyzable (unbound) fraction of dye in human plasma; assay type: in vitro ADME; conditions: human plasma, 37° C., read-out: Dialyzable fraction (mean ± S.E.M.)
Experimental: as §2
(§3) To study the fraction of unbound dye in human plasma, there was added small aliquots of carboxyfluorescein and sodium fluorescein solutions to plasma separated from heparinized human blood so that the final dye concentration in the plasma was between 10^-3 M and 10^-6 M. The plasma/dye mixture was incubated for 2 hours at 37° C. Then using the dialysis and measuring procedures described above, the ratio of unbound dye to total dye in the plasma mixture was calculated.

rabbit eyes = tested on: rabbit eyes
Experimental: Carboxyfluorescein was prepared as a 1% solution in water, buffered to pH 7.4. Carboxyfluorescein was made into strip form, using strips of #1 filter paper, impregnated with carboxyfluorescein and allowed to dry. The carboxyfluorescein was applied to rabbit eyes both with the paper impregnated strip and also as a 1% topical drop.

human plasma proteins = assay: Dialyzable (unbound) fraction of dye in human plasma; assay type: in vitro ADME; conditions: for Dialyzable fraction (mean ± S.E.M.): human, plasma
Experimental: as §2, §3

O=C1OC2(c3ccc(O)cc3Oc3cc(O)ccc32)c2ccccc21 [fluorescein]
Partition coefficient octanol/artificial sea water [1]: 0.6 | logD at 10 µM (physchem; pH 6.42): 1.58 | logD at 1000 µM (physchem; pH 6.42): 1.54 | logD at 10 µM (physchem; pH 6.87): 0.69 | logD at 1000 µM (physchem; pH 6.87): 0.708 | logD at 10 µM (physchem; pH 7.38): -0.194 | logD at 1000 µM (physchem; pH 7.38): -0.292 | logD at 10 µM (physchem; pH 8.03): -1.52 | logD at 1000 µM (physchem; pH 8.03): -1.42 | pH at which partition ratio reaches 1.0 (physchem; octanol/buffer): 7.25 | Fluorescence of iris epithelium ([2]; in vivo): brightly stains the cells of the ciliary and iris epithelium | Outer segment layer values relative to deeper retinal layers ([2]; in vivo): twice as high | Tissue relative fluorescence intensity, IPL (mean ± S.E.M.) ([2]; in vivo, 12.5 mg/kg): .021 | Tissue relative fluorescence intensity, ONL (mean ± S.E.M.) ([2]; in vivo, 12.5 mg/kg): .011 ± .001 | Tissue relative fluorescence intensity, choroid (mean ± S.E.M.) ([2]; in vivo, 12.5 mg/kg): .57 ± .03 | Tissue relative fluorescence intensity, outer segments (mean ± S.E.M.) ([2]; in vivo, 12.5 mg/kg): .032 ± .003 | Tissue relative fluorescence intensity, IPL (mean ± S.E.M.) ([2]; in vivo, 62.5 mg/kg): .086 | Tissue relative fluorescence intensity, ONL (mean ± S.E.M.) ([2]; in vivo, 62.5 mg/kg): .076 ± .004 | Tissue relative fluorescence intensity, choroid (mean ± S.E.M.) ([2]; in vivo, 62.5 mg/kg): 2.7 ± .2 | Tissue relative fluorescence intensity, outer segments (mean ± S.E.M.) ([2]; in vivo, 62.5 mg/kg): .153 ± .008 | Tissue relative fluorescence intensity, IPL (mean ± S.E.M.) ([2]; in vivo, 125 mg/kg): .150 | Tissue relative fluorescence intensity, ONL (mean ± S.E.M.) ([2]; in vivo, 125 mg/kg): .196 ± .011 | Tissue relative fluorescence intensity, choroid (mean ± S.E.M.) ([2]; in vivo, 125 mg/kg): 5.7 ± .5 | Tissue relative fluorescence intensity, outer segments (mean ± S.E.M.) ([2]; in vivo, 125 mg/kg): .452 ± .021 | Outer segment layer values relative to choroid ([2]; in vivo, 1 min): 6-8% | Corneal penetration and artificial aqueous flare (cornea): its ready penetration through the cornea into the aqueous humor creates an artificial aqueous flare | Substrate for active transport [3]: serves as a substrate for an active transport system in the anterior uvea | Plasma unbound dye concentration ([4]; i.v. 12.5 mg/kg): .04 ± .03 mg/mL | Plasma unbound dye concentration ([4]; i.v. 62.5 mg/kg): .18 ± .01 mg/mL | Plasma unbound dye concentration ([4]; i.v. 125 mg/kg): .29 ± .01 mg/mL | pKa, divalent/monovalent anion ([5]; dianion/monoanion): 6.7 | pKa, monoanion/neutral molecule ([5]; second listed pKa): 4.4 | pKa, neutral molecule/cation ([5]; third listed pKa): 2.2 | fraction unbound at 1000 µM ([6]; 10^-3 M): 0.3 ± 0.02 | fraction unbound at 100 µM ([6]; 10^-4 M): 0.33 ± 0.03 | fraction unbound at 10 µM ([6]; 10^-5 M): 0.33 ± 0.01 | fraction unbound at 1 µM ([6]; 10^-6 M): 0.32 ± 0.02

carboxyfluorescein
Persistence of stain (rabbit eyes; corneal abrasion, observation 30 to 45 minutes): persisted but lessened in intensity | Staining of corneal epithelial defect (rabbit eyes; experimental corneal abrasion): densely stained the corneal epithelial defect | Hyperemia or corneal changes (rabbit eyes; in vivo): no apparent hyperemia or corneal changes | Reaction / subjective discomfort (rabbit eyes; in vivo): did not react in a negative fashion | Visibility in tear film (rabbit eyes; topical, blue light): seen in the tear film | Partition ratio octanol/buffer (physchem; 10 µM, pH 6.42): .037 | Partition ratio octanol/buffer (physchem; 10 µM, pH 6.87): .0030 | Partition ratio octanol/buffer (physchem; 10 µM, pH 7.38): .0007 | Partition ratio octanol/buffer (physchem; 1000 µM, pH 6.42): .033 | Partition ratio octanol/buffer (physchem; 1000 µM, pH 6.87): .0028 | Partition ratio octanol/buffer (physchem; 1000 µM, pH 7.38): .0008 | Partition ratio octanol/buffer (physchem; 1000 µM, pH 8.03): .00006 | Partition ratio (physchem; octanol/phosphate buffer, pH 6.4): below 0.1 | Fluorescence of iris stroma ([2]; in vivo): the intensity of fluorescence is less than that seen with fluorescein | Tissue relative fluorescence intensity, IPL (mean ± S.E.M.) ([2]; in vivo, 62.5 mg/kg): .001 | Tissue relative fluorescence intensity, ONL (mean ± S.E.M.) ([2]; in vivo, 62.5 mg/kg): .002 ± .001 | Tissue relative fluorescence intensity, choroid (mean ± S.E.M.) ([2]; in vivo, 62.5 mg/kg): 8.0 ± .4 | Tissue relative fluorescence intensity, outer segments (mean ± S.E.M.) ([2]; in vivo, 62.5 mg/kg): .008 ± .001 | Tissue relative fluorescence intensity, IPL (mean ± S.E.M.) ([2]; in vivo, 125 mg/kg): .002 | Tissue relative fluorescence intensity, ONL (mean ± S.E.M.) ([2]; in vivo, 125 mg/kg): .003 ± .001 | Tissue relative fluorescence intensity, choroid (mean ± S.E.M.) ([2]; in vivo, 125 mg/kg): 7.8 ± .8 | Tissue relative fluorescence intensity, outer segments (mean ± S.E.M.) ([2]; in vivo, 125 mg/kg): .006 ± .003 | Permeability of blood-ocular barriers to intravascular dye ([2]; not told): markedly less permeable to intravascular carboxyfluorescein than to fluorescein | Plasma unbound dye concentration compared with fluorescein ([4]; in vivo, iv): significantly higher than in animals injected with fluorescein | Binding to human plasma proteins compared with fluorescein (human plasma proteins): consistently less bound to human plasma proteins than fluorescein | Dialyzable fraction (mean ± S.E.M.) (human plasma proteins; 1 µM): .46 ± .01 | Dialyzable fraction (mean ± S.E.M.) (human plasma proteins; 10 µM): .51 ± .03 | Dialyzable fraction (mean ± S.E.M.) (human plasma proteins; 100 µM): .50 ± .01 | Dialyzable fraction (mean ± S.E.M.) (human plasma proteins; 1000 µM): .61 ± .02
